Here are results for 62 compounds from a melting point compilation (Tetko et al.; mined from patent text by program, amines drawn as free bases though some values may be those of a salt).

Compound `Cc1ccc2c(c1)sc1ncc(C=O)n12` displayed a melting point of 170 to 171 °C.

`CCOC(=O)Cn1cc(I)c(NC(=O)c2ccccc2)nc1=O` showed a melting point of 154 to 155 °C.

`COC(=O)C(=CN(C)C)N(C)c1cc(-c2ccc(Cl)cc2)on1` showed a melting point of 190 °C.

The compound `CCOC(=O)C(F)(F)C(O)(CC)c1cc2n(c(=O)c1CO)Cc1cc3ccccc3nc1-2` (configuration not stated) displayed a melting point of 208 to 209 °C.

Compound `O=C1N(Cc2ccc(Cl)c(Cl)c2)C(=NCC(F)(F)F)SCN1c1ccccc1` showed a melting point of 99.1 to 99.6 °C.

For `CC(CCCN(C)c1ccccc1)NCC(O)c1ccc(O)c(C(N)=O)c1` (configuration not stated), the melting point fell in the range of 155 to 157 °C.

`CCCCCCC(C(C)O)n1cnc(C(N)=O)c1N` (configuration not stated) yielded a melting point of 159 to 160 °C.

In turn, `CS(=O)(=O)c1cccc(NC(=O)c2cnn3c(C(F)F)cc(-c4ccc(C(F)(F)F)cc4)nc23)c1` showed a melting point of 251 °C.

For the compound `CCCCCCCCCCC(=O)C(=O)N[C@@H](CCC(=O)O)C(=O)O`, the melting point was in the range of 97 to 98 °C.

`FC(F)(F)c1cc(Cl)c(Oc2cc(-c3ccc(Cl)cc3)[nH]n2)c(Cl)c1`: the melting point was in the range of 181 to 183 °C.

In turn, `CCCCCCCNC(=O)CCCCCCCSc1nc(-c2ccccc2)c(-c2ccccc2)[nH]1` had a melting point of 119 to 120 °C.

The compound `CC(C)(C)OC(=O)C1CCCN1C(=O)c1ccc2c(Cl)cnc(Cl)c2c1` (racemic) displayed a melting point of 144 to 146 °C.

For `CCC1(CC)C(=N)N(c2ccc(C#N)c(C(F)(F)F)c2)C(=S)N1C`, the melting point lay within 167 to 168 °C.

With `CC(C)(C)OC(=O)N1CCC[C@H]1COc1cccc2c1ccn2S(=O)(=O)c1ccccc1`, the melting point lay in the range of 48 to 50 °C.

Consider `COC(=O)c1ccc(CN(C(C)C)S(=O)(=O)c2ccc(Cl)cc2)cc1`, for which the melting point was in the range of 110 to 112 °C.

Regarding `CSc1ccc(-c2cc(C(C)C)nc(N)n2)c2ccccc12`, the melting point was in the range of 139 to 140 °C.

Compound `CC(=O)OCc1nc(C(CN(C(C)=O)C(C)(C)C)OC(C)=O)ccc1OC(C)=O` (configuration not stated) showed a melting point of 60 to 64 °C.

`COC(=O)c1cc(=O)c2ccc(S)cc2o1` returned a melting point of 147 to 150 °C.

Take `CCCCNC(=O)c1cnc2ccccn2c1=O`: the melting point was 127 to 130 °C.

As for `COCCOc1cc2ncnc(C3C(=O)N(C=O)c4ccccc43)c2cc1OC` (configuration not stated), the melting point is 228 to 230 °C.

For the compound `Nc1nnc(-c2cc3c(Oc4ccc(Br)cc4)cncc3s2)o1`, the melting point is 270 to 273 °C.

On to `O=C(O)CN(CC(=O)O)C(=O)c1cc(OCCCCCCCCCCCCOc2ccccc2)ccc1OCc1ccccc1`, for which the melting point lay within 70 to 75 °C.

With `COc1cc(OC)c(CSC(C)(C)CCO)c(OC)c1`, the melting point was in the range of 69 to 72 °C.

Regarding `CC1(C)Cc2c(N)c(Cl)cc(-c3nc(C4CCN(CCCC#N)CC4)no3)c2O1`, the melting point amounted to 151 °C.

Turning to `COc1ccc(C2(O)CCCN(Cc3ccccc3)C2)cc1` (configuration not stated), the melting point was determined as 58 °C.

`CCOc1nc(N2CCNCC2)nc2c1sc1nc(-c3ccc(C(O)CO)cc3)nc(C)c12` (configuration not stated) displayed a melting point above 300 °C.

`CCN(CC)C(=CC(=O)OC)n1c(=O)n2nc(C(=O)OC)c(N(CC)CC)c2c2ccccc21` displayed a melting point of 178 °C.

Turning to `CCCCCOc1ccc(CCOc2ccc(/C=C(\OCC)C(=O)O)cc2OC)cc1`, the melting point was 135 °C.

Take `CCCCCc1nc(C(=O)OCC)c(C)[nH]1`: the melting point lay in the range of 89 to 90 °C.

Turning to `C=CCOC(=O)c1cnn(-c2c(Cl)cc(Br)cc2Cl)c1N`, the melting point worked out at 85 °C.

Turning to `COc1ccc(C(=O)Nc2cc3c(cc2CCC2CCCCN2C)OCO3)cc1` (configuration not stated), the melting point was in the range of 112 to 113 °C.

Compound `CSc1nc(N)c(C#N)nc1C#N` gave a melting point of 250 to 252 °C.

Compound `CC(C)C(=O)Oc1ccc2c(c1)-c1ncc(C(=O)O)c(=O)n1CC2` came in with a melting point of 183 to 185 °C.

In the case of `Cc1nc(N2CCN(C)CC2)nc(N)c1-c1cc(Cl)cc(Cl)c1Cl`, the melting point lay in the range of 156 to 159 °C.

Compound `CS(=O)(=O)N1CCN(S(=O)(=O)c2ccc3c(c2)S(=O)(=O)NC(C2CCCCC2)N3)CC1` (configuration not stated) displayed a melting point of 272 to 274 °C.

`Nc1c(Cl)cc(C(O)CNC2CC2)cc1C(F)(F)F` (configuration not stated) displayed a melting point of 138 to 139 °C.

Turning to `COc1cc(C2=NNC(=O)Cc3cc4c(cc32)OCO4)ccc1[N+](=O)[O-]`, the melting point is 267 to 269 °C.

In turn, `Nc1nc(-c2ccccc2)c(CCO)c2ncnn12` came in with a melting point of 194 to 195 °C.

For `Cc1oc(-c2ccccc2)nc1CCc1ccc(/C=C/C=C/C=C2OC(=O)NC2=O)cc1`, the melting point was in the range of 208 to 210 °C.

Consider `CC(C(=O)O)c1ccc2c(c1)Cc1cccnc1S2` (configuration not stated), for which the melting point is 203 to 204 °C.

The compound `CNS(=O)(=O)c1cc2c(c(C(=O)NC3CCN(Cc4ccccc4)CC3)c1)OCCO2` came in with a melting point of 228 °C.

For the compound `CC(C)n1nc(-c2c(-c3ccccc3)oc(=O)n2C(C)C(=O)O)ccc1=O` (configuration not stated), the melting point was in the range of 173 to 175 °C.

Consider `CCCN(Cc1ccc(-c2ccccc2-c2nnnn2C(c2ccccc2)(c2ccccc2)c2ccccc2)cc1)c1nc(C)nnc1C(=O)OCC`, for which the melting point was in the range of 178 to 179 °C.

The compound `O=C(Cc1ccccc1)N[C@H]1CN(OCc2ccccc2)C1=O` gave a melting point of 130 to 131 °C.

In turn, `COC1OCC[C@@H]1N(C(=O)CNC(=O)COc1ccc2c(c1)Nc1ccccc1S2)[C@@H](Cc1ccccc1)C(N)=O` (some centres not stated) gave a melting point of 203 to 204 °C.

The compound `CN1C(=O)N2[C@H](c3cccc(O)c3)c3[nH]c4ccc(Br)cc4c3C[C@@]2(C)C1=O` (racemic) registered a melting point of 248 to 251 °C.

With `O=C(O)COc1cc(NS(=O)(=O)c2cccs2)c2ccccc2c1O`, the melting point lay within 155 to 157 °C.

`COc1ccc(N2CCN(N)CC2)cc1` gave a melting point of 107 °C.

With `CS(=O)(=O)Nc1cc([C@@H](O)CNC2CCN(c3ccc(/C=C/C(=O)O)cc3)CC2)ccc1O`, the melting point was found to be 220 °C.

The compound `CCCCCC(CC(=O)Nc1cc(C(=O)O)ccc1C(C)(C)C)c1cccc(OC)c1OC` (configuration not stated) gave a melting point of 146 to 147 °C.

`ClCc1cc(OCc2ccc3ccccc3n2)no1` returned a melting point of 126 to 127 °C.

As to `CC(C(O)c1ccc(OC(=O)c2ccc(CN3CCOCC3)cc2)cc1)N1CCC(O)(c2ccccc2)CC1` (configuration not stated), the melting point lay within 172 to 173 °C.

As for `O=NN1CCCSc2ccccc21`, the melting point was in the range of 85 to 86 °C.

On to `COC(=O)c1nc(-c2cc(F)c([Si](C)(C)C)cc2F)c(F)c(N)c1OC`, for which the melting point lay within 137 to 139 °C.

On to `N#CNC(=S)Nc1ccccc1Cl`, for which the melting point was in the range of 253 to 255 °C.

As to `COCOc1ccccc1-c1cc(-c2cccc(C(=O)OC)c2OC)c(C#N)c(NC(=O)c2ccco2)n1`, the melting point fell in the range of 140 to 141 °C.

Take `O=c1ccc(-c2c(-c3ccccc3)nn3ccccc23)nn1C1CCCC(O)C1` (configuration not stated): the melting point was in the range of 117 to 118 °C.

With `COCCc1sc2ncnc(N)c2c1-c1ccc(N)cc1`, the melting point was in the range of 144 to 146 °C.

`COC(=O)C1=Cc2ccc(O)cc21` came in with a melting point of 108 to 109 °C.

`COc1ccc(-c2[nH]nc3c2C(=O)c2c(NC(=O)Cc4ccc(N)cc4)cccc2-3)cc1` had a melting point of 283 °C.

Take `CCCCOC(=O)Cc1cc2c(s1)CCN(C(=O)[C@H](Cc1ccc(O)cc1)NC(=O)c1ccc(C(=N)N)cc1)C2`: the melting point lay within 176 to 178 °C.

In turn, `NC(=O)c1cccc2c1nc(-c1c(F)cccc1F)n2Cc1c(F)cccc1F` displayed a melting point of 260 to 261 °C.
